Values of other authors, collected in patent US4271152A, “Psycho-pharmacological peptides” (Akzo N.V., priority 1979, dated 1981).
“Also recorded” adds a separate entry of the source.

What was measured:
[1] = tested on: opiate receptor
[2] = tested on: avoidance behaviour of rats; settings: pole-jumping test; for extinction of the (pole-jumping) avoidance behaviour: background knowledge / earlier Dutch application
[3] = can be antagonized by naloxon

D-Ala^2 -Met-enkephalin
affinity to the opiate receptor [1]: affinity to the opiate receptor

Leu-enkephaline
affinity to the opiate receptor [1]: affinity to the opiate receptor

Met-enkephalin
extinction of the (pole-jumping) avoidance behaviour [2]: inhibit the extinction of the avoidance behaviour | affinity to the opiate receptor [1]: affinity to the opiate receptor

α-endorphin
extinction of the (pole-jumping) avoidance behaviour [2]: inhibit the extinction of the avoidance behaviour; also recorded: delayed the extinction of the avoidance behaviour | affinity to the opiate receptor [1]: affinity to the opiate receptor

β-endorphin (YGGFMTSEKSQTPLVTLFKNAIIKNAYKKGE; Beta-endorphin; UniProt P01189 237-267, looked up)
counteraction by morphine antagonists (naloxon, naltrexon) of the inhibition of extinction [2]: cannot be counteracted by known morphine antagonists | extinction of the (pole-jumping) avoidance behaviour [2]: inhibits the extinction | analgetic effect [3]: analgetic effect

γ-endorphin
extinction of the (pole-jumping) avoidance behaviour [2]: accelerate the extinction of the avoidance behaviour
